In PubChem BioAssay AID588841 (The Scripps Research Institute Molecular Screening Center, 2011):
Calls of active or inactive are those of the source.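 The calls were made as follows: active = EC50 at or below 10 µM; inactive = the rest.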

Each compound was assayed against cAMP-dependent protein kinase type II-beta regulatory subunit (Homo sapiens) + cAMP-dependent protein kinase catalytic subunit beta (Mus musculus) (UniProt P31323+P68181) (assay: compounds dissociating PKAc from R2B subunit – biochemical, fluorescence polarization, powder samples, late-stage follow-up (AID 588841)). Conditions: PKA-R2B holoenzyme dissociation, Cy5-IP20 fluorescence polarization.

EC50, inactive:
COC(=O)c1sc2ncccc2c1OCc1ccccc1Cl > 100 µM, Cc1ccc(COc2ccsc2C(=O)O)cc1 > 100 µM, Cc1csc(C(=O)O)c1NC(=O)c1ccc(F)cc1 > 100 µM, COC(=O)c1sc2ncccc2c1OCc1ccc(Cl)cc1Cl > 100 µM, CC(C)(C)c1ccc(COc2ccsc2C(=O)O)cc1 > 100 µM, O=C(O)c1sccc1NC(=O)c1c(Cl)cccc1Cl > 100 µM, O=C(O)c1sc2ncccc2c1OCc1ccccc1 > 100 µM, O=C(O)c1sccc1SCc1ccc(Cl)cc1Cl > 100 µM, O=C(O)c1sccc1SCc1ccc(Cl)c(Cl)c1 > 100 µM
